Reference: PMC8621570, “Mechanistic Studies of Antibiotic Adjuvants Reducing Kidney’s Bacterial Loads upon Systemic Monotherapy” (Pharmaceutics, 2021)

Columns and labels:
[1] = system: 12 GNB strains; assay type: cell-based; conditions: OD measurements, mean of 12 GNB strains
Method: (§1) Bacteria:Escherichia coli strains: 25922 and 35218 (ATCC, Manassas, VA, USA), 14182 (clinical isolate), Ag100 and Ag100A [34] (ΔacrAB) are two K-12 isogenic mutantsand the engineered mutant ML-35p. Additional ESKAPE species tested: Klebsiella pneumoniae strains 1287 and 224 (clinical isolates), Acinetobacter baumannii ATCC strain 19606, Pseudomonas aeruginosa ATCC strains 9027 and 27853. Bacteria were grown in Luria–Bertani (LB) broth (0.5% NaCl, 0.5% yeast extract, 1% tryptone, pH = 7), except for E. coli ML-35p that was grown in tryptic-soy broth.
(§2) Peptide self-assembly was determined by static light scattering measurements as described. Hemolysis was determined by measuring hemoglobin leakage from washed human RBCs, as described. Minimal inhibitory concentration (MIC) was determined using the microdilution assay, as described. Bactericidal kinetics were determined by mixing bacteria with rifampin, OAC, or their combinations, as described. Data were obtained from three independent assays performed in duplicate.

[2] = system: E. coli 25922; assay type: cell-based, Escherichia coli; conditions: 25922, 24 h
Method: Sensitization to plasma components was assessed by mixing bacteria with serial two-fold OAC dilutions in 80% human plasma (Israel Blood Bank) or plasma from the specified species (Technion preclinical research authority or VetSource), as described. Data were obtained from three independent experiments.
Figure 3 Animal plasma antibacterial activities against E. coli 25922. (a) Dose-dependent reduction of colony forming units (CFU) as determined 24 h after exposure to C14(ω5)OOc10O in human plasma (80% final plasma concentration in PBS). Values represent the mean ± SD obtained from three individual plasma donors (mean inoculum was 1.6 ± 0.8 × 10^6 CFU/mL). (b) Time-kill kinetics determined upon E. coli exposure to 0, 2.5, 5, and 10 µM C14(ω5)OOc10O (from top to bottom, respectively). Values represent the mean ± SD obtained from two individual plasma samples, each subjected to two independent assays. Panels (c–f), respectively, show the OAC’s concentration-dependent activities in plasma samples obtained from pig, cat, sheep, and dog. The three dashed horizontal lines respectively represent the average CFU count of the vehicle control (upper line), the inoculum (middle line), and the limit of detection (lower line), i.e., log10 50 CFU/mL = 1.69. Green stars (*) denote lack of detectable CFU.

[3] = system: E. coli strain AG100; test: microbe, parasite or virus in culture; assay type: cell-based, Escherichia coli; conditions: strain AG100
Method: as §1, §2
(§3) The wild-type E. coli strain AG100 and its isogenic ΔacrAB mutant AG100A were used to determine the MIC of OACs and of two known acrAB-TolC substrates: the AMP LL-37 and the macrolide antibiotic erythromycin that are normally inefficient against GNB.

[4] = system: E. coli ΔacrAB mutant AG100A; test: microbe, parasite or virus in culture; assay type: cell-based, Escherichia coli; conditions: isogenic ΔacrAB mutant AG100A
Method: as §1, §2, §3

[5] = Blood circulating concentrations (preliminary PK); assay type: in vivo, mouse; conditions: ICR mice, single S.C 12.5 mg/kg, LC-MS
Method: C14(ω5)OOc10O was subjected to preliminary pharmacokinetics (PK) analysis to determine its plasma concentrations or organ bio-distribution following S.C administration to non-neutropenic pathogen-free mice. OAC quantification was performed by LC-MS as follows: blood was drawn at various time intervals and plasma was separated by centrifugation (5000 RCF, 10 min). Organs were excised and homogenized. Then, OAC was extracted from both plasma and organ homogenates by incubation with 50% acetonitrile: 50% methanol at room temperature with shaking for 30 min, and subsequent centrifugation (5000 RCF, 10 min). Supernatants were diluted two-fold in distilled water and analyzed by LC-MS (ULC ultimate 3000 DIONEX, MS BRUKER Maxis impact). Quantification was based on standard calibration curves, prepared by spiking fresh mice plasma (for PK) or water (for organ bio-distribution) with various amounts of the tested OAC (final concentrations from 2.5 to 50 µg/mL) and subjected to an identical procedure as described above.
Figure 10 Systemic efficacy studies using mouse infection models. (a,b) Data points represent colony forming unit (CFU) counts harvested from infected mice (8 and 10 mice per group, respectively). Panel (a) depicts results of the thigh infection model where mice were inoculated intramuscularly with E. coli 25922 (upper dashed line represents the inoculum) and treated subcutaneously with C14(ω5)OOc10O (12.5 mg/kg) at 1 and 3 h post-infection. Panel (b) depicts results of the urinary tract infection model where mice were infected with E. coli UPEC CFT073 by intra-urethral injection and treated subcutaneously with C14(ω5)OOc10O (12.5 mg/kg) at 1 and 6 h post-infection. Solid circles denote mice that died before the experimental endpoint. […] Panels (c,d) show the evolution of C14(ω5)OOc10O concentrations in mouse plasma (c) or in organs (d) after single subcutaneous administration (12.5 mg/kg) to ICR mice (data in c are from two mice/time points except for 60 and 180 that were 8 and 3, respectively) as determined by liquid chromatography–mass spectrometry. […]

[6] = system: Pseudomonas aeruginosa 27853; test: Sensitization to rifampin, checkerboard method; assay type: cell-based; conditions: adjuvant at 8 µg/mL (10 µM for C14(ω5)OOc10O), Pa 27853, LB
Method: (§4) Bacterial sensitization: Sensitization to antibiotics was determined using the checkerboard method in presence of sub-MIC OAC (2.5, 5, and 10 μM), as described. The synergistic effect of the combinations was expressed in terms of the Sensitization Factor (SF), where SF = (MIC antibiotic alone)/(MIC antibiotic upon combination). Data were obtained from three independent assays performed in duplicate.
(§5) Figure 4 Hydrophobicity dependence of antibiotics potentiation by lipopeptide analogs. Sensitization of GNB to rifampin and erythromycin (upper and lower panel, respectively) was assessed by MIC experiments performed in LB medium, in presence or absence of an OAC analog whose A2 position was gradually shortened (from c10 to c6). Pseudomonas aeruginosa 27853 (Pa, blue), Klebsiella pneumoniae 1287 (Kp, green), Escherichia coli 25922 (Ec, red), and Acinetobacter baumannii 19606 (Ab, black).

[7] = system: Acinetobacter baumannii 19606; test: Sensitization to rifampin, checkerboard method; assay type: cell-based; conditions: adjuvant at 8 µg/mL (10 µM for C14(ω5)OOc10O), Ab 19606, LB
Method: as §4, §5

[8] = system: Klebsiella pneumoniae; test: Sensitization to rifampin, checkerboard method; assay type: cell-based; conditions: adjuvant at 8 µg/mL (10 µM for C14(ω5)OOc10O), Kp, LB
Method: as §4, §5

CCCCC=CCCCCCCCC(=O)N[C@@H](CCCN)C(=O)N[C@@H](CCCN)C(=O)NCCCCCCCCCC(=O)N[C@@H](CCCN)C(N)=O [C14(ω5)OOc10O]
MIC, LB medium [1]: > 50 µM | MIC, cat plasma [2]: ≥ 20 µM | MIC, dog plasma [2]: ≥ 20 µM | MIC, human plasma [2]: 2.5 to 5 µM | MIC [3]: 25 µM | MIC, Ag100A [4]: 6.2 µM | Time for which potentiating plasma concentrations (>2.5 µM) were maintained after the maximum [5]: at least 3 h | Cmax ([5]; mouse, plasma, sc, mean ± SD, read-out: Maximal plasma concentration): 8.7 ± 2.3 µM | Tmax ([5]; mouse, plasma, sc, read-out: Time to maximal plasma concentration): ~1 h | Sensitization factor (rifampin MIC alone)/(rifampin MIC in combination) [6]: 32,000 | Sensitization factor (rifampin MIC alone)/(rifampin MIC in combination) [7]: 4000 | Sensitization factor (rifampin MIC alone)/(rifampin MIC in combination) [8]: 64,000
